Results taken from patent US11530244B2, “Cyclic polypeptides for PCSK9 inhibition” (priority 2018, dated 2022).
Starred links: 1 amine or outer side, 2 acyl side, 3 side chain; linkers in the order of their positions; H or OH if unused. Positions of bridges follow the written chain, without caps; N, C: chain ends. Non-standard residues stand in square brackets, D forms with d. Residues, ends and D or L forms follow the SMILES beside them. X52 = O=C([C@H](Cc1cc2cc(F)ccc2[nH]1)N[*:1])[*:2]; NHCH2C6H4(p)CH2CH2NH = c1cc(CN[*:1])ccc1CCN[*:2]; X58 = O=C([C@@H]1[C@H](OCC=[*:3])CCN1[*:1])[*:2]; Ala(imidazol-2-yl) = N[C@@H](Cc1ncc[nH]1)C(=O)O; Trp(5-F) = N[C@@H](Cc1c[nH]c2ccc(F)cc12)C(=O)O; X55 = O=C(CCCCCC(=O)[*:1])NCc1ccc(CCN[*:2])cc1; X3 = O=C(CCSCc1cc(F)cc(CSCCN[*:1])c1)[*:2]; X33 = CC(C)C(N[*:1])c1ncc(C(=O)[*:2])[nH]1; X57 = O=C([C@@H](CCCCC=[*:3])N[*:1])[*:2]; Lys(Me3) = C[N+](C)(C)CCCC[C@H](N)C(=O)O; X12 = O=C([C@H](CCCCC=[*:3])N[*:1])[*:2]; X4 = O=C(CCSCc1cccc(CSCCN[*:1])c1)[*:2]; X64 = C[C@H](N[*:1])c1ncc(C(=O)[*:2])s1; mXylylene = c1cc(C[*:1])cc(C[*:2])c1; Lys(Me2) = CN(C)CCCC[C@H](N)C(=O)O; Lys(Me) = CNCCCC[C@H](N)C(=O)O; αMeP = C[C@@]1(C(=O)O)CCCN1; Aze = O=C(O)[C@@H]1CCN1; Dap = NC[C@H](N)C(=O)O; AEEA = NCCOCCOCC(=O)O; βAla = NCCC(=O)O; Mpa = O=C(O)CCS

Target: human PCSK9 / human LDLR EGFa domain interaction (Homo sapiens (Human), UniProt Q8NBP7)
Sequence (Q8NBP7 153-692): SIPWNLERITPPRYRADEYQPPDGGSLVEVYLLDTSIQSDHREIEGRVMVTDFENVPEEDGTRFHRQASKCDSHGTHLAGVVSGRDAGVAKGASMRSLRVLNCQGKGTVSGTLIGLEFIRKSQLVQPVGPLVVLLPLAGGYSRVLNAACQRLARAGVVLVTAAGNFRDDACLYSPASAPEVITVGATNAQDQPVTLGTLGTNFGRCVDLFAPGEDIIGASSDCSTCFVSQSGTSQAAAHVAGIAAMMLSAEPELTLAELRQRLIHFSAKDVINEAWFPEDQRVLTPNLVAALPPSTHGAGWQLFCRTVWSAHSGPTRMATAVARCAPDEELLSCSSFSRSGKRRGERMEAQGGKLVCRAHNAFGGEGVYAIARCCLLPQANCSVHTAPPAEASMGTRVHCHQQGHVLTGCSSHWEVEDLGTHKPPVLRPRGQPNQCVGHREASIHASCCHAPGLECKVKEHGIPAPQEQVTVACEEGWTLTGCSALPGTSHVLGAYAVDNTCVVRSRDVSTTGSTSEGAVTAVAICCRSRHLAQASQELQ
Sequence (Q8NBP7 31-152 partner): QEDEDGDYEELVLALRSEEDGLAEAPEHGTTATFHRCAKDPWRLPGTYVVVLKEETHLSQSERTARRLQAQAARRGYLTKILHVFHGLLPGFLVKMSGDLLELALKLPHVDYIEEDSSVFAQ
Experiment: TR-FRET assay of inhibition of the PCSK9-LDLR protein-protein interaction
Format: binding
Settings: TR-FRET, 20 nM human PCSK9, 20 nM human LDLR EGFa domain, 2 hours room temperature; read-out: IC50
Experimental: A time-resolved fluorescence resonance energy (TR-FRET) assay was used to measure inhibition of the PCSK9-LDLR protein-protein interaction. Briefly, 20 nM avitag-biotinylated human PCSK9 was incubated with 20 nM his-tagged human LDLR EGFa domain in the presence of 5 nM LANCE Ulight Streptavidin (Perkin Elmer) and 5 nM europium-Anti-6×His (Perkin Elmer) for 2 hours covered at room temperature in buffer containing 50 mM HEPES, 150 mM NaCl, 5 mM CaCl2), 0.01% BSA and 0.01% Surfactant P20. Compounds were tested in dose-response and concentrations giving half-maximal inhibition calculated using a 4-parameter fit equation.

Row | IC50 | SMILES
1 | 21000 to 50000 nM | C[C@@H]1NC(=O)[C@@H]2CCN2C(=O)[C@H](Cc2c[nH]c3ccc(F)cc23)NC(=O)[C@H](Cc2c[nH]c3ccc(F)cc23)NC(=O)[C@@H](C)NC(=O)[C@H](CCCCN)NC(=O)CCSCc2cccc(c2)CSCCNC(=O)[C@]2(C)CCCN2C(=O)[C@H](Cc2ccc(O)cc2)NC1=O [Compound 002] (cyclo(AY[αMeP][X4]K[dA][Trp(5-F)][Trp(5-F)][Aze]))
2 | 1000 to 12100 nM | COc1ccc(C[C@@H]2NC(=O)CCNC(=O)[C@@H]3CCCN3C(=O)[C@H](Cc3c[nH]c4ccc(F)cc34)NC(=O)[C@H](Cc3cc4cc(F)ccc4[nH]3)NC(=O)[C@@H](C)NC(=O)[C@H](CCCCN)NC(=O)CCSCc3cccc(c3)CSCCNC(=O)[C@]3(C)CCCN3C2=O)cc1 [Compound 003] (cyclo(K[dA][X52][Trp(5-F)]P[βAla]Y(Me)[αMeP][X4]))
3 | 100 to 1000 nM | C[C@@H](O)[C@@H]1NC(=O)[C@@H]2CCCN2C(=O)[C@H](Cc2c[nH]c3ccc(F)cc23)NC(=O)[C@H](Cc2c[nH]c3ccc(F)cc23)NC(=O)CNC(=O)[C@H](CCCCN)NC(=O)CCSCc2cccc(c2)CSC[C@@H](C(N)=O)NC(=O)[C@]2(C)CCCN2C(=O)[C@H](Cc2ccc(O)cc2)NC1=O [Compound 014] ([Mpa]KG[Trp(5-F)][Trp(5-F)]PTY[αMeP]C-NH2; linker 1-10 via mXylylene)

Target: PCSK9 (Homo sapiens (Human), UniProt Q8NBP7)
Sequence (Q8NBP7 153-692): as the sequence (Q8NBP7 153-692) above
Experiment: PCSK9 Alexa FRET Standard assay (displacement of AlexaFluor647 tagged cyclic peptide Reagent A)
Format: binding
Settings: PCSK9 Alexa FRET Standard assay, 0.5 nM PCSK9, 20 nM AF cyclic peptide Reagent A; read-out: IC50
In short: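 TR-FRET displacement: 0.5 nM biotinylated PCSK9 with 1.25 nM Strep-Eu and 20 nM AlexaFluor-tagged cyclic peptide (final) in 50 mM HEPES pH 7.4, 0.15 M NaCl, 5 mM CaCl2, 0.01% BSA, 0.01% P20, ≥2 h at room temperature. IC50 from sigmoidal fit, converted to Ki via peptide KD; falling Eu counts flagged false positives.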

Row | SMILES | IC50
4 | COc1ccc(C[C@@H]2NC(=O)[C@H](Cc3cnc[nH]3)NC(=O)[C@H](CC(=O)O)NC(=O)[C@H](Cc3c[nH]c4ccc(F)cc34)NC(=O)[C@H](Cc3c[nH]c4ccc(F)cc34)NC(=O)[C@@H](C)NC(=O)[C@H](NC(C)=O)CCC(=O)NCc3ccc(cc3)CCNC(=O)C[C@@H](C(N)=O)NC(=O)[C@]3(C)CCCN3C2=O)cc1 [Compound 451] (Ac-[dE][dA][Trp(5-F)][Trp(5-F)]DHY(Me)[αMeP]D-NH2; linker 1-9 via NHCH2C6H4(p)CH2CH2NH) | 100 to 1000 nM
5 | COc1ccc(C[C@@H]2NC(=O)[C@H](Cc3cnc[nH]3)NC(=O)[C@H](CC(=O)O)NC(=O)[C@H](Cc3c[nH]c4ccc(F)cc34)NC(=O)[C@H](Cc3c[nH]c4ccc(F)cc34)NC(=O)[C@@H](C)NC(=O)[C@H](CCCC[N+](C)(C)C)NC(=O)CCSCc3cccc(c3)CSCCNC(=O)[C@]3(C)CCCN3C2=O)cc1 [Compound 461] (cyclo(DHY(Me)[αMeP][X4][Lys(Me3)][dA][Trp(5-F)][Trp(5-F)])) | 21000 to 50000 nM
6 | COc1ccc(C[C@@H]2NC(=O)[C@H](Cc3ncc[nH]3)NC(=O)[C@H](CC(=O)O)NC(=O)[C@H](Cc3c[nH]c4ccc(F)cc34)NC(=O)[C@H](Cc3c[nH]c4ccc(F)cc34)NC(=O)[C@@H](C)NC(=O)[C@H](CCCCN(C)C)NC(=O)CCSCc3cccc(c3)CSCCNC(=O)[C@]3(C)CCCN3C2=O)cc1 [Compound 464] (cyclo(D[Ala(imidazol-2-yl)]Y(Me)[αMeP][X4][Lys(Me2)][dA][Trp(5-F)][Trp(5-F)])) | 21000 to 50000 nM
7 | CC(=O)N[C@H]1CCCC/C=C/CO[C@@H]2CCN(C(=O)[C@H](Cc3ccc(O)cc3)NC(=O)[C@H](Cc3cnc[nH]3)NC(=O)[C@H](CC(=O)O)NC(=O)[C@H](Cc3c[nH]c4ccc(F)cc34)NC(=O)[C@H](Cc3c[nH]c4ccc(F)cc34)NC(=O)CNC(=O)[C@H](CCCCN)NC1=O)[C@@H]2C(N)=O [Compound 469] (Ac-[X12]KG[Trp(5-F)][Trp(5-F)]DHY[X58]-NH2; staple (E) 1-9) | 21000 to 50000 nM
8 | COc1ccc(C[C@@H]2NC(=O)[C@H](Cc3cnc[nH]3)NC(=O)[C@H](CC(=O)O)NC(=O)[C@H](Cc3c[nH]c4ccc(F)cc34)NC(=O)[C@H](Cc3c[nH]c4ccc(F)cc34)NC(=O)[C@H](C)NC(=O)CCCCCC(=O)NCc3ccc(cc3)CCNC(=O)[C@]3(C)CCCN3C2=O)cc1 [Compound 470] (A[Trp(5-F)][Trp(5-F)]DHY(Me)[αMeP]; linker N-C via X55) | 0.11 to 100 nM

Continued, values first:

Row | IC50 | SMILES
9 | 0.11 to 100 nM | COc1ccc(C[C@@H]2NC(=O)[C@H](Cc3ncc[nH]3)NC(=O)[C@H](CC(=O)O)NC(=O)[C@H](Cc3c[nH]c4ccc(F)cc34)NC(=O)[C@H](Cc3c[nH]c4ccc(F)cc34)NC(=O)[C@@H](C)NC(=O)[C@H](CNC(=O)COCCOCCN)NC(=O)CCSCc3cccc(c3)CSCCNC(=O)[C@]3(C)CCCN3C2=O)cc1 [Compound 448] (cyclo(D[Ala(imidazol-2-yl)]Y(Me)[αMeP][X4][Dap](AEEA)[dA][Trp(5-F)][Trp(5-F)]))
10 | 100 to 1000 nM | CC(C)C1NC(=O)CCSCc2cccc(c2)CSC[C@@H](C(N)=O)NC(=O)[C@]2(C)CCCN2C(=O)[C@H](Cc2ccc(O)cc2)NC(=O)[C@H](Cc2c[nH]cn2)NC(=O)[C@H](CC(=O)O)NC(=O)[C@H](Cc2c[nH]c3ccc(F)cc23)NC(=O)[C@H](Cc2c[nH]c3ccc(F)cc23)NC(=O)c2cnc1[nH]2 (some centres unmarked) [Compound 449] ([Mpa][X33][Trp(5-F)][Trp(5-F)]DHY[αMeP]C-NH2; linker 1-9 via mXylylene)
11 | 100 to 1000 nM | CC(C)C1NC(=O)CCSCc2cccc(c2)CSC[C@@H](C(N)=O)NC(=O)[C@]2(C)CCCN2C(=O)[C@H](Cc2ccc(O)cc2)NC(=O)[C@H](Cc2c[nH]cn2)NC(=O)[C@H](CC(=O)O)NC(=O)[C@H](Cc2c[nH]c3ccc(F)cc23)NC(=O)[C@H](Cc2c[nH]c3ccc(F)cc23)NC(=O)c2cnc1[nH]2 (some centres unmarked) [Compound 450] ([Mpa][X33][Trp(5-F)][Trp(5-F)]DHY[αMeP]C-NH2; linker 1-9 via mXylylene)
12 | 0.11 to 100 nM | C[C@@H]1NC(=O)[C@H](Cc2c[nH]c3ccc(F)cc23)NC(=O)[C@H](Cc2c[nH]c3ccc(F)cc23)NC(=O)[C@@H](C)NC(=O)[C@H](CCCCN)NC(=O)CCSCc2cccc(c2)CSC[C@@H](C(N)=O)NC(=O)[C@]2(C)CCCN2C(=O)[C@H](Cc2ccc(O)cc2)NC(=O)C2=CN=C1S2 [Compound 460] ([Mpa]K[dA][Trp(5-F)][Trp(5-F)][X64]Y[αMeP]C-NH2; linker 1-9 via mXylylene)
13 | 1000 to 12100 nM | COc1ccc(C[C@@H]2NC(=O)[C@H](Cc3ncc[nH]3)NC(=O)[C@H](CC(=O)O)NC(=O)[C@H](Cc3c[nH]c4ccc(F)cc34)NC(=O)[C@H](Cc3c[nH]c4ccc(F)cc34)NC(=O)[C@@H](C)NC(=O)[C@H](CCCC[N+](C)(C)C)NC(=O)CCSCc3cc(F)cc(c3)CSCCNC(=O)[C@]3(C)CCCN3C2=O)cc1 [Compound 462] (cyclo(D[Ala(imidazol-2-yl)]Y(Me)[αMeP][X3][Lys(Me3)][dA][Trp(5-F)][Trp(5-F)]))
14 | 100 to 1000 nM | COc1ccc(C[C@@H]2NC(=O)[C@H](Cc3ncc[nH]3)NC(=O)[C@H](CC(=O)O)NC(=O)[C@H](Cc3c[nH]c4ccc(F)cc34)NC(=O)[C@H](Cc3c[nH]c4ccc(F)cc34)NC(=O)[C@@H](C)NC(=O)[C@H](CCCCN(C)C)NC(=O)CCSCc3cccc(c3)CSCCNC(=O)[C@]3(C)CCCN3C2=O)cc1 [Compound 463] (cyclo(D[Ala(imidazol-2-yl)]Y(Me)[αMeP][X4][Lys(Me2)][dA][Trp(5-F)][Trp(5-F)]))
15 | 1000 to 12100 nM | COc1ccc(C[C@@H]2NC(=O)[C@H](Cc3ncc[nH]3)NC(=O)[C@H](CC(=O)O)NC(=O)[C@H](Cc3c[nH]c4ccc(F)cc34)NC(=O)[C@H](Cc3c[nH]c4ccc(F)cc34)NC(=O)[C@@H](C)NC(=O)[C@H](CCCCN(C)C)NC(=O)CCSCc3cc(F)cc(c3)CSCCNC(=O)[C@]3(C)CCCN3C2=O)cc1 [Compound 465] (cyclo(D[Ala(imidazol-2-yl)]Y(Me)[αMeP][X3][Lys(Me2)][dA][Trp(5-F)][Trp(5-F)]))
16 | 1000 to 12100 nM | CNCCCC[C@@H]1NC(=O)CCSCc2cc(F)cc(c2)CSCCNC(=O)[C@]2(C)CCCN2C(=O)[C@H](Cc2ccc(OC)cc2)NC(=O)[C@H](Cc2ncc[nH]2)NC(=O)[C@H](CC(=O)O)NC(=O)[C@H](Cc2c[nH]c3ccc(F)cc23)NC(=O)[C@H](Cc2c[nH]c3ccc(F)cc23)NC(=O)[C@@H](C)NC1=O [Compound 468] (cyclo(D[Ala(imidazol-2-yl)]Y(Me)[αMeP][X3][Lys(Me)][dA][Trp(5-F)][Trp(5-F)]))
17 | 0.11 to 100 nM | CC(=O)N[C@@H]1CCCC/C=C\CO[C@@H]2CCN(C(=O)[C@H](Cc3ccc(O)cc3)NC(=O)[C@H](Cc3cnc[nH]3)NC(=O)[C@H](CC(=O)O)NC(=O)[C@H](Cc3c[nH]c4ccc(F)cc34)NC(=O)[C@H](Cc3c[nH]c4ccc(F)cc34)NC(=O)CNC1=O)[C@@H]2C(N)=O [Compound 471] (Ac-[X57]G[Trp(5-F)][Trp(5-F)]DHY[X58]-NH2; staple (Z) 1-8)
18 | 0.11 to 100 nM | CC(C)C[C@H]1C(=O)N[C@@H](Cc2ccc(O)cc2)C(=O)N2CCC[C@@]2(C)C(=O)N[C@H](C(N)=O)CSCc2cccc(c2)CSCCC(=O)N[C@@H](CCCCN)C(=O)NCC(=O)N[C@@H](Cc2c[nH]c3ccc(F)cc23)C(=O)N[C@@H](Cc2c[nH]c3ccc(F)cc23)C(=O)N[C@H]2CCN1C2=O [Compound 472]
19 | 0.11 to 100 nM | COc1ccc(C[C@@H]2NC(=O)[C@@H]3CCCC(=O)N[C@@H]4C[C@H](C(=O)N3)N(C4)C(=O)[C@H](Cc3c[nH]c4ccc(F)cc34)NC(=O)[C@H](Cc3c[nH]c4ccc(F)cc34)NC(=O)[C@@H](C)NC(=O)[C@H](CCCCN)NC(=O)CCSCc3cccc(c3)CSCCNC(=O)[C@]3(C)CCCN3C2=O)cc1 [Compound 522]
20 | 0.11 to 100 nM | COc1ccc(C[C@@H]2NC(=O)[C@H]([C@H](C)O)NC(=O)[C@@H]3CCCc4cn(nn4)CCCC[C@H](NC(=O)[C@@H](C)NC(=O)[C@H](CCCCN)NC(=O)CCSCc4cccc(c4)CSCCNC(=O)[C@]4(C)CCCN4C2=O)C(=O)N[C@@H](Cc2c[nH]c4ccc(F)cc24)C(=O)N3)cc1 [Compound 526]
